Measured values: PubChem BioAssay AID274 (DTP/NCI, 2004)
Where “and” joins values, the source holds several entries; their conditions need not be identical. Equal values may be shown once. Toxic doses and inconclusive results are not listed.

System: BDF1 mice, Lewis lung carcinoma iv, survival T/C
Test: NCI In Vivo Anticancer Drug Screen. Data for tumor model Lewis Lung Carcinoma (intravenous) in B6D2F1 (BDF1) mice
Details: endpoint: median survival time, higher = longer survival
Protocol: The antitumor activity of compounds was measured in mice bearing transplantable tumors. Survival or tumor size were measured and the results are expressed as the measurement made in the treated group (T) divided by the measurement made in the vehicle treated control group (C). The tumor model used in this assay is Lewis Lung Carcinoma (intravenous) in B6D2F1 (BDF1) mice

[1] = dose: 25.0 mg/kg/injection, schedule: Q01DX009 (ip), vehicle: Klucel (hydroxypropylcellulose) (HPC)
[2] = dose: 50.0 mg/kg/injection, schedule: Q01DX009 (ip), vehicle: Klucel (hydroxypropylcellulose) (HPC)
[3] = dose: 12.5 mg/kg/injection, schedule: Q01DX009 (ip), vehicle: saline
[4] = dose: 25.0 mg/kg/injection, schedule: Q01DX009 (ip), vehicle: saline
[5] = dose: 50.0 mg/kg/injection, schedule: Q01DX009 (ip), vehicle: saline
[6] = dose: 100.0 mg/kg/injection, schedule: Q01DX009 (ip), vehicle: saline
[7] = dose: 6.25 mg/kg/injection, schedule: Q01DX009 (ip), vehicle: saline with Tween-80
[8] = dose: 12.5 mg/kg/injection, schedule: Q01DX009 (ip), vehicle: saline with Tween-80
[9] = dose: 25.0 mg/kg/injection, schedule: Q01DX009 (ip), vehicle: saline with Tween-80
[10] = dose: 50.0 mg/kg/injection, schedule: Q01DX009 (ip), vehicle: saline with Tween-80
[11] = dose: 100.0 mg/kg/injection, schedule: Q01DX009 (ip), vehicle: saline with Tween-80
[12] = dose: 200.0 mg/kg/injection, schedule: Q01DX009 (ip), vehicle: saline with Tween-80

What does the source list for `Cc1cc(N(CCOS(C)(=O)=O)CCOS(C)(=O)=O)ccc1C=Nc1ccc(-c2nc(Cc3ccccc3)sc2C)cc1`?
T/C [1]: 117 % of control; T/C [2]: 87 % of control

What does the source list for `CN(Cc1cnc2nc(N)nc(N)c2n1)c1ccc(C(=O)N[C@@H](CCC(=O)O)C(=O)O)cc1`?
T/C (dose: 0.23 mg/kg/injection, schedule: Q01DX021 (ip), vehicle: sodium bicarbonate): 105 % of control; T/C (dose: 0.25 mg/kg/injection, schedule: Q01DX009 (ip), vehicle: sodium bicarbonate): 103 % of control; T/C (dose: 0.39 mg/kg/injection, schedule: Q01DX009 (ip), vehicle: sodium bicarbonate): 102 % of control; T/C (dose: 0.39 mg/kg/injection, schedule: Q01DX021 (ip), vehicle: sodium bicarbonate): 102 % of control; T/C (dose: 0.5 mg/kg/injection, schedule: Q01DX009 (ip), vehicle: sodium bicarbonate): 121 % of control; T/C (dose: 0.65 mg/kg/injection, schedule: Q01DX009 (ip), vehicle: sodium bicarbonate): 100 % of control; T/C (dose: 0.65 mg/kg/injection, schedule: Q01DX021 (ip), vehicle: sodium bicarbonate): 105 % of control; T/C (dose: 1.0 mg/kg/injection, schedule: Q01DX009 (ip), vehicle: sodium bicarbonate): 107 % of control and 114 % of control and 118 % of control; T/C (dose: 1.08 mg/kg/injection, schedule: Q01DX009 (ip), vehicle: sodium bicarbonate): 95 % of control; T/C (dose: 1.08 mg/kg/injection, schedule: Q01DX021 (ip), vehicle: sodium bicarbonate): 114 % of control; T/C (dose: 1.8 mg/kg/injection, schedule: Q01DX009 (ip), vehicle: sodium bicarbonate): 110 % of control; T/C (dose: 2.0 mg/kg/injection, schedule: Q01DX009 (ip), vehicle: sodium bicarbonate): 96 % of control and 114 % of control; T/C (dose: 2.5 mg/kg/injection, schedule: Q04DX003 (ip), vehicle: sodium bicarbonate): 90 % of control; T/C (dose: 3.0 mg/kg/injection, schedule: Q01DX009 (ip), vehicle: sodium bicarbonate): 114 % of control; T/C (dose: 3.9 mg/kg/injection, schedule: Q04DX006 (ip), vehicle: sodium bicarbonate): 96 % of control; T/C (dose: 4.0 mg/kg/injection, schedule: Q01DX009 (ip), vehicle: sodium bicarbonate): 96 % of control; T/C (dose: 5.0 mg/kg/injection, schedule: Q04DX003 (ip), vehicle: sodium bicarbonate): 103 % of control; T/C (dose: 6.5 mg/kg/injection, schedule: Q04DX003 (ip), vehicle: sodium bicarbonate): 100 % of control and 103 % of control; T/C (dose: 6.5 mg/kg/injection, schedule: Q04DX003 (iv), vehicle: sodium bicarbonate): 107 % of control; T/C (dose: 6.5 mg/kg/injection, schedule: Q04DX006 (ip), vehicle: sodium bicarbonate): 109 % of control; T/C (dose: 10.0 mg/kg/injection, schedule: Q04DX003 (ip), vehicle: sodium bicarbonate): 108 % of control; T/C (dose: 10.8 mg/kg/injection, schedule: Q04DX003 (ip), vehicle: sodium bicarbonate): 119 % of control and 123 % of control; T/C (dose: 10.8 mg/kg/injection, schedule: Q04DX003 (iv), vehicle: sodium bicarbonate): 116 % of control; T/C (dose: 10.8 mg/kg/injection, schedule: Q04DX006 (ip), vehicle: sodium bicarbonate): 120 % of control; T/C (dose: 18.0 mg/kg/injection, schedule: Q04DX003 (iv), vehicle: sodium bicarbonate): 120 % of control; T/C (dose: 20.0 mg/kg/injection, schedule: Q04DX003 (ip), vehicle: sodium bicarbonate): 123 % of control; T/C (dose: 30.0 mg/kg/injection, schedule: Q04DX006 (ip), vehicle: sodium bicarbonate): 95 % of control

`COC1=C(NC(C)=O)C(=O)c2nc(-c3nc(C(=O)O)c(C)c(-c4ccc(OC)c(OC)c4O)c3N)ccc2C1=O` was tested. Which T/C (dose: 6.0 mg/kg/injection, schedule: Q01DX009 (ip), vehicle: Klucel (hydroxypropylcellulose) (HPC)) did it give?
The T/C was 101 % of control.

What about the T/C (dose: 12.0 mg/kg/injection, schedule: Q01DX009 (ip), vehicle: Klucel (hydroxypropylcellulose) (HPC)) of the same compound?
The T/C was 96 % of control.

And the T/C [1]?
Its T/C is 98 % of control.

And the T/C [2]?
Its T/C is 97 % of control.

`C=CCNc1ccc(C)cc1` was tested. Which T/C (dose: 100.0 mg/kg/injection, schedule: Q01DX009 (ip), vehicle: Klucel (hydroxypropylcellulose) (HPC)) did it give?
Its T/C is 86 % of control.

How did the T/C (dose: 6.25 mg/kg/injection, schedule: Q01DX009 (ip), vehicle: saline) turn out when `Nc1ccn([C@@H](C=O)O[C@@H](C=O)CO)c(=O)n1` was run?
The T/C was 96 % of control.

What about the T/C [3] of the same compound?
The T/C was 105 % of control.

And the T/C [4]?
Its T/C is 100 % of control.

And the T/C [5]?
Its T/C is 96 % of control.

What about the T/C [6] of the same compound?
The T/C was 97 % of control.

Which T/C (dose: 8.0 mg/kg/injection, schedule: Q01DX009 (ip), vehicle: Klucel (hydroxypropylcellulose) (HPC)) does the source give for `CC(C)NCC(O)COc1cccc2ccccc12` (centres undefined) here?
The T/C was 90 % of control.

And the T/C (dose: 16.0 mg/kg/injection, schedule: Q01DX009 (ip), vehicle: Klucel (hydroxypropylcellulose) (HPC))?
The T/C was 96 % of control.

What about the T/C (dose: 32.0 mg/kg/injection, schedule: Q01DX009 (ip), vehicle: Klucel (hydroxypropylcellulose) (HPC)) of the same compound?
The T/C was 92 % of control.

What about the T/C (dose: 64.0 mg/kg/injection, schedule: Q01DX009 (ip), vehicle: Klucel (hydroxypropylcellulose) (HPC)) of the same compound?
The T/C was 100 % of control.

Which T/C [3] does the source give for `c1ccc(CN2CCOC2)cc1` here?
The T/C was 96 % of control.

What about the T/C [4] of the same compound?
The T/C was 107 % of control.

And the T/C [5]?
The T/C was 116 % of control.

And the T/C [6]?
Its T/C is 99 % of control.

Which results are given for `Cc1cc2cc3cc(C)c(N)cc3nc2cc1N`?
T/C (dose: 3.12 mg/kg/injection, schedule: Q01DX009 (ip), vehicle: saline with Tween-80): 102 % of control; T/C [7]: 104 % of control; T/C [8]: 100 % of control; T/C [9]: 105 % of control

`NC1(C(=O)O)CCCc2ccc(N(CCCl)CCCl)cc21` (centres undefined) was tested. Which T/C (dose: 2.5 mg/kg/injection, schedule: Q01DX009 (ip), vehicle: saline) did it give?
Its T/C is 99 % of control.

And the T/C (dose: 5.0 mg/kg/injection, schedule: Q01DX009 (ip), vehicle: saline)?
Its T/C is 98 % of control.

And the T/C (dose: 10.0 mg/kg/injection, schedule: Q01DX009 (ip), vehicle: saline with Tween-80)?
Its T/C is 118 % of control.

And the T/C (dose: 10.0 mg/kg/injection, schedule: Q01DX009 (ip), vehicle: saline)?
The T/C was 109 % of control.

What about the T/C (dose: 20.0 mg/kg/injection, schedule: Q01DX009 (ip), vehicle: saline with Tween-80) of the same compound?
Its T/C is 108 % of control.

For `COc1ccc2nonc2c1`, which T/C [9] is on record?
The T/C was 191 % of control.

And the T/C [10]?
The T/C was 109 % of control.

What about the T/C [11] of the same compound?
The T/C was 101 % of control.

What about the T/C [12] of the same compound?
Its T/C is 103 % of control.

For `OCC1OC(n2cnc3cc(Cl)c(Cl)cc32)C(O)C1O` (centres undefined), which T/C [7] is on record?
The T/C was 96 % of control.

What about the T/C [8] of the same compound?
The T/C was 94 % of control.

What about the T/C [9] of the same compound?
The T/C was 110 % of control.

What about the T/C [10] of the same compound?
Its T/C is 110 % of control.

What about the T/C [11] of the same compound?
The T/C was 100 % of control.

And the T/C [12]?
The T/C was 90 % of control.

How did the T/C [3] turn out when `CC(C)C(N)C(=O)Nc1nncs1` (centres undefined) was run?
The T/C was 104 % of control.

What about the T/C [4] of the same compound?
Its T/C is 106 % of control.

And the T/C [5]?
Its T/C is 106 % of control.

And the T/C [6]?
The T/C was 115 % of control.

And the T/C (dose: 200.0 mg/kg/injection, schedule: Q01DX009 (ip), vehicle: saline)?
The T/C was 95 % of control.

Which T/C [7] does the source give for `C[CH2][Ge]([CH2]C)[CH2]C.C[CH2][Ge]([CH2]C)[CH2]C.C[CH2][Ge]([CH2]C)[O][Ge]([CH2]C)[CH2]C` here?
The T/C was 97 % of control.

What about the T/C [8] of the same compound?
The T/C was 96 % of control.

What about the T/C [9] of the same compound?
Its T/C is 103 % of control.

What about the T/C [10] of the same compound?
The T/C was 100 % of control.

Which T/C [11] does the source give for `CN1c2ccc3ccccc3c2Sc2ccc3ccccc3c21` here?
Its T/C is 98 % of control.

What about the T/C [12] of the same compound?
The T/C was 98 % of control.

And the T/C (dose: 400.0 mg/kg/injection, schedule: Q01DX009 (ip), vehicle: saline with Tween-80)?
Its T/C is 111 % of control.

How did the T/C (dose: 0.62 mg/kg/injection, schedule: Q01DX009 (ip), vehicle: saline) turn out when `CC(=O)OC1C2(CC3N4C(=O)C5(CO)SSC4(CC31O)C(=O)N5C)OC(C)C(C)(C)C2=O` (centres undefined) was run?
Its T/C is 171 % of control.

`CCOC(=O)CNC(=O)CCCCSc1ncnc2nc[nH]c12` was tested. Which T/C (dose: 20.0 mg/kg/injection, schedule: Q01DX009 (ip), vehicle: Klucel (hydroxypropylcellulose) (HPC)) did it give?
Its T/C is 102 % of control.

And the T/C (dose: 40.0 mg/kg/injection, schedule: Q01DX009 (ip), vehicle: Klucel (hydroxypropylcellulose) (HPC))?
The T/C was 106 % of control.

What about the T/C (dose: 80.0 mg/kg/injection, schedule: Q01DX009 (ip), vehicle: Klucel (hydroxypropylcellulose) (HPC)) of the same compound?
The T/C was 98 % of control.

And the T/C (dose: 160.0 mg/kg/injection, schedule: Q01DX009 (ip), vehicle: Klucel (hydroxypropylcellulose) (HPC))?
Its T/C is 98 % of control.

What about the T/C (dose: 320.0 mg/kg/injection, schedule: Q01DX009 (ip), vehicle: Klucel (hydroxypropylcellulose) (HPC)) of the same compound?
The T/C was 105 % of control.

`CC1=C(/C=C/C(C)=C/C=C/C(C)=C/C(=O)O)C(C)(C)CCC1` was tested. Which T/C (dose: 4.0 mg/kg/injection, schedule: Q01DX005 (ip), vehicle: saline with Tween-80) did it give?
Its T/C is 92 % of control.

What about the T/C (dose: 8.0 mg/kg/injection, schedule: Q01DX005 (ip), vehicle: saline with Tween-80) of the same compound?
Its T/C is 95 % of control.

What about the T/C (dose: 16.0 mg/kg/injection, schedule: Q01DX005 (ip), vehicle: saline with Tween-80) of the same compound?
The T/C was 102 % of control.

What about the T/C (dose: 32.0 mg/kg/injection, schedule: Q01DX005 (ip), vehicle: saline with Tween-80) of the same compound?
Its T/C is 91 % of control.

What about the T/C (dose: 128.0 mg/kg/injection, schedule: Q01DX005 (ip), vehicle: saline with Tween-80) of the same compound?
Its T/C is 91 % of control.
